Measured values as given in PubChem BioAssay (NCI).
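Growth conditions: 96-well plates. Treatment: test compound, 48 hours, 5 concentrations. Analysis: linear interpolation between bracketing concentrations; unreached endpoints set to highest concentration. TGI marks complete inhibition of growth.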

Legend:
Assay in all cases: NCI tumour cell line growth inhibition, 48 h
[1] = system: NCI-H23 lung
[2] = system: NCI-H460 lung
[3] = system: OVCAR-3 ovarian
[4] = system: SR leukemia
[5] = system: DU-145 prostate
[6] = system: SF-268 CNS
[7] = system: HT29 colon
[8] = system: RPMI-8226 leukemia
[9] = system: OVCAR-5 ovarian
[10] = system: HCT-116 colon
[11] = system: HS 578T breast
[12] = system: HOP-92 NSCLC
[13] = system: SNB-75 CNS
[14] = system: U251 CNS
[15] = system: NCI-H226 lung
[16] = system: UACC-257 melanoma
[17] = system: SK-MEL-28 melanoma
[18] = system: SW-620 colon
[19] = system: MALME-3M melanoma
[20] = system: SK-OV-3 ovarian

Row | SMILES | TGI [1] [µM] | TGI [2] [µM] | TGI [3] [µM] | TGI [4] [µM] | TGI [5] [µM] | TGI [6] [µM] | TGI [7] [µM] | TGI [8] [µM] | TGI [9] [µM] | TGI [10] [µM] | TGI [11] [µM] | TGI [12] [µM] | TGI [13] [µM] | TGI [14] [µM] | TGI [15] [µM] | TGI [16] [µM] | TGI [17] [µM] | TGI [18] [µM] | TGI [19] [µM] | TGI [20] [µM]
1 | O=C1c2ccccc2C(=O)N1CCCCNOCCCN1C(=O)c2ccccc2C1=O | > 100 | > 100 | > 100 | > 100 | > 100 | > 100 | > 100 | > 100 | > 100 | > 100 | > 100 | > 100 | > 100 | > 100 | > 100 | > 100 | > 100 | > 100 | > 100 | > 100
2 | CCOC(=O)c1cn2c(n1)sc1cc(Cl)ccc12 | > 100 | > 100 | 64.5 | > 100 | > 100 | > 100 | > 100 | > 100 | > 100 | 13.6 | > 100 | > 100 | > 100 | 60.7 | > 100 | > 100 | > 100 | > 100 | 99.1 | > 100
3 | O=C1CC(c2cccc([N+](=O)[O-])c2)C2(C(=O)NC(=O)NC2=O)C(c2cccc([N+](=O)[O-])c2)C1 (stereo not drawn) | > 100 | > 100 | 58.2 | > 100 | > 100 | 84.1 | > 100 | > 100 | > 100 | 42.8 | > 100 | > 100 | > 100 | > 100 | > 100 | > 100 | > 100 | > 100 | 61.8 | > 100
4 | COC(=O)C1=CS/C(=C2\S[C@@H]3[C@H](S2)[C@H]2C=C[C@@H]3C2)S1 | > 100 | > 100 | > 100 | > 100 | > 100 | > 100 | 92.6 | > 100 | – | > 100 | > 100 | > 100 | > 100 | > 100 | > 100 | > 100 | > 100 | > 100 | > 100 | > 100
5 | CCCCCCCCCCCC(=O)OCC(C[As](=O)(O)O)OC(=O)CCCCCCCCCCC (stereo not drawn) | 18 | 13.3 | 22.8 | 51.4 | 35.6 | > 34.1 | 20.2 | > 62 | 34.1 | 18.3 | 13.3 | 4.29 | 21.1 | 2.93 | 42.9 | 21.9 | 10.1 | 26.8 | 6.49 | 30.1
6 | C(/C=C/Nc1ccc(Oc2ccccc2)cc1)=Nc1ccc(Oc2ccccc2)cc1 | 48.7 | 30.6 | 34.3 | 39.7 | 39.5 | 40.7 | 29.7 | 54.1 | 50.2 | 31.2 | 43.4 | 51.2 | 31.9 | 33.2 | > 100 | 32 | 30.3 | 34.6 | 33.7 | –
7 | N#Cc1[nH]c(=O)n(-c2ccccc2)c1N | > 10 | > 10 | > 10 | > 10 | > 10 | > 10 | > 10 | > 10 | > 10 | > 10 | > 10 | – | > 10 | > 10 | > 10 | > 10 | > 10 | > 10 | > 10 | > 10
8 | CCCc1c(O)nc(Nc2nc3ccccc3[nH]2)[nH]c1=O | > 100 | > 100 | – | > 100 | > 100 | > 100 | > 100 | > 100 | > 100 | > 100 | > 100 | > 100 | > 100 | > 100 | > 100 | > 100 | – | > 100 | > 100 | > 100
9 | COc1cc(OC)c2c(C)cc(=O)oc2c1 | > 100 | – | > 100 | > 100 | > 100 | > 100 | > 100 | > 100 | > 100 | > 100 | > 100 | – | > 100 | > 100 | > 100 | > 100 | > 100 | > 100 | > 100 | > 100
10 | CC(=O)[C@@H](C)C(=O)N1C(=O)OC[C@@]12[C@@H]1CC[C@@H](C1)C2(C)C | > 100 | > 100 | – | > 100 | > 100 | – | > 100 | > 100 | > 100 | > 100 | > 100 | > 100 | > 100 | > 100 | > 100 | > 100 | > 100 | > 100 | > 100 | > 100
11 | CN(C(=O)Cc1cccc(N=C=S)c1)[C@H]1CCCC[C@@H]1N1CCCC1 | 29.5 | 36.3 | 28 | 29.2 | 27.7 | 36.4 | 26.4 | 32.3 | 36.1 | 26 | 45 | 29 | 27.8 | 32.3 | – | 28.9 | 32.8 | 36.2 | 40.5 | 69.4
12 | O=C(Nc1nnc(-c2ccc(Cl)cc2)o1)C(SC(=S)N1CCOCC1)c1ccccc1 (stereo not drawn) | 70.6 | 53.3 | 30.2 | > 100 | > 100 | – | 78.3 | > 100 | 88.2 | 26.5 | > 100 | – | > 100 | 77.2 | 56.4 | > 100 | > 100 | > 100 | > 100 | > 100
